According to US20090042963A1 (priority 2005, published 2009):

Test system: Pyricularia oryzae
Assay type: cell-based
Settings: single active compound, Conc. 1 ppm; microtiter plate, malt-based medium, 18° C., measured at 405 nm on day 7 after inoculation

SMILES: Fc1ccc(C2(Cn3cncn3)OC2c2ccccc2Cl)cc1 (centres unmarked) [Epoxiconazole, epoxiconazole]
- Observed effect (%): 0%

SMILES: CC(C)(C)C(O)(CCc1ccc(Cl)cc1)Cn1cncn1 (centres unmarked) [Tebuconazole, tebuconazole]
- Observed effect (%): 2%
